Experimental data reported in article PMC12799219, “In vitro and in vivo studies on the activity and selectivity of butoconazole in experimental infection by Trypanosoma cruzi” (Memórias do Instituto Oswaldo Cruz, 2026).

Assay: In vivo pharmacokinetic study, plasma levels by LC-MS/MS
Parameters: species or system BALB/c mice
Settings: mice, single dose 100 mg/kg i.p.
Procedure: In vivo pharmacokinetic study - Adult male specific-pathogen-free BALB/c mice, provided by the Faculty of Veterinary Sciences, National University of La Plata (FCV-UNLP) were used. Animals were housed in cages with four animals per cage, under a 12 h light/dark cycle and controlled temperature, provided with water and food ad libitum and environmental enrichment. A minimum period of six days was given after transport for physiological acclimatisation before any procedure. Five groups of mice (n = 3 per group) were used, one per sampling time. […] Plasma was obtained immediately after blood collection by centrifugation for 10 min at 4,000 rpm and conserved at -17 °C until quantification. […]
The equipment used was a Waters Alliance 2695 HPLC coupled to a tandem quadrupole mass spectrometer, Premier XE (Waters Corp.), equipped with an electrospray ionisation source operating in positive mode (ESI+). […] The mass spectrometer was configured to operate in multiple reaction monitoring (MRM) mode, employing two mass transitions for the compound, one for quantification (411.0 > 164.9) and the other for confirmation (413.2 > 164.9).
Unbound drug concentrations in plasma were estimated by multiplying the analytically determined total drug concentrations by the unbound fraction predicted by Deep-PK.[27]

Q: Which “mean peak total plasma concentration” value does the source give for `Clc1ccc(CCC(Cn2ccnc2)Sc2c(Cl)cccc2Cl)cc1` (centres unmarked) [BTZ, butoconazole] here?
A: 25.9 µM

Q: And the “time of mean peak plasma concentration” value?
A: 2 h
